Measured values: the NIST ThermoML archive (doi:10.1021/je500513b)
Numbers after ± are expanded uncertainties.

Assay: mn = molality of the nth substance listed, in mol/kg
Conditions: for surface tension liquid-gas: Pendant drop shape; for electrical conductivity: 100 kPa, Liquid, Mettler Toledo inLab 710

CCCCCCCCCCCCCC[N+](C)(C)CCCCCC[N+](C)(C)CCCCCCCCCCCCCC.[Br-].[Br-] + O
Conditions | electrical conductivity, 298.15 K [S/m] | electrical conductivity, 303.15 K [S/m] | electrical conductivity, 308.15 K [S/m] | electrical conductivity, 313.15 K [S/m] | electrical conductivity, 318.15 K [S/m] | electrical conductivity, 323.15 K [S/m] | surface tension liquid-gas, 298.15 K [mN/m]
m1 = 1e-05 | – | – | – | – | – | – | 61.8 ± 9.3
m1 = 2e-05 | – | – | – | – | – | – | 56.01 ± 11
m1 = 3e-05 | – | – | – | – | – | – | 52.48 ± 6.4
m1 = 4e-05 | – | – | – | – | – | – | 50.87 ± 4.5
m1 = 5e-05 | – | – | – | – | – | – | 49.03 ± 3.3
m1 = 6e-05 | – | – | – | – | – | – | 47.1 ± 3.9
m1 = 7e-05 | – | – | – | – | – | – | 45.98 ± 2.8
m1 = 8e-05 | – | – | – | – | – | – | 43.05 ± 2.5
m1 = 0.0001 | – | – | – | – | – | – | 42.1 ± 0.87
m1 = 0.000111 | 0.00247 ± 0.00034 | 0.00278 ± 0.00043 | 0.00326 ± 0.00044 | 0.00342 ± 0.00038 | 0.00369 ± 0.0006 | 0.00384 ± 0.00062 | –
m1 = 0.000115 | 0.00256 ± 0.00032 | – | – | – | – | – | –
m1 = 0.000118 | – | 0.00293 ± 0.00042 | 0.00339 ± 0.00042 | 0.00353 ± 0.00043 | 0.00387 ± 0.00057 | 0.004 ± 0.00066 | –
m1 = 0.00012 | 0.00265 ± 0.00031 | – | – | – | – | – | 41.5 ± 0.87
m1 = 0.000125 | 0.00273 ± 0.00031 | 0.00311 ± 0.0004 | 0.00353 ± 0.00041 | 0.00364 ± 0.00048 | 0.00407 ± 0.0006 | 0.00426 ± 0.00063 | –
m1 = 0.00013 | 0.0028 ± 0.00032 | – | – | – | – | – | –
m1 = 0.000133 | – | 0.00327 ± 0.00041 | 0.00369 ± 0.0004 | 0.00386 ± 0.00046 | 0.00431 ± 0.00057 | 0.00452 ± 0.00061 | –
m1 = 0.000136 | 0.00289 ± 0.00033 | – | – | – | – | – | –
m1 = 0.00014 | – | – | – | – | – | – | 40.55 ± 0.76
m1 = 0.000143 | 0.003 ± 0.00031 | 0.00347 ± 0.0004 | 0.00386 ± 0.0004 | 0.00411 ± 0.00048 | 0.00454 ± 0.00057 | 0.00482 ± 0.00063 | –
m1 = 0.00015 | 0.00312 ± 0.00031 | 0.00361 ± 0.00038 | 0.004 ± 0.0004 | 0.00429 ± 0.00053 | 0.00478 ± 0.00058 | 0.00504 ± 0.00063 | –
m1 = 0.000158 | 0.00326 ± 0.00029 | 0.00375 ± 0.00035 | 0.00418 ± 0.00039 | 0.00449 ± 0.00051 | 0.00503 ± 0.00055 | 0.00526 ± 0.00061 | –
m1 = 0.000167 | 0.00338 ± 0.00029 | 0.00391 ± 0.00035 | 0.00438 ± 0.0004 | 0.00467 ± 0.00053 | 0.00529 ± 0.00057 | 0.00554 ± 0.00061 | –
m1 = 0.00017 | – | – | – | – | – | – | 39.84 ± 0.61
m1 = 0.000176 | 0.00352 ± 0.00027 | 0.00407 ± 0.00032 | 0.00458 ± 0.0004 | 0.00494 ± 0.00049 | 0.00559 ± 0.00057 | 0.00586 ± 0.00061 | –
m1 = 0.000188 | 0.00365 ± 0.00025 | 0.00424 ± 0.00029 | 0.00478 ± 0.00035 | 0.00523 ± 0.00047 | 0.00588 ± 0.00052 | 0.00618 ± 0.00058 | –
m1 = 0.000197 | – | 0.00435 ± 0.00027 | 0.00493 ± 0.00034 | 0.00541 ± 0.00042 | 0.00613 ± 0.00051 | 0.00647 ± 0.00056 | –
m1 = 0.0002 | 0.0038 ± 0.00022 | – | – | – | – | – | 39.13 ± 0.42
m1 = 0.000207 | – | 0.0045 ± 0.00027 | 0.00512 ± 0.00033 | 0.00562 ± 0.00041 | 0.00638 ± 0.00049 | 0.00676 ± 0.00055 | –
m1 = 0.000214 | 0.00396 ± 0.00023 | – | – | – | – | – | –
m1 = 0.000218 | – | 0.00464 ± 0.00026 | 0.00529 ± 0.00032 | 0.00582 ± 0.00036 | 0.00665 ± 0.00048 | 0.00702 ± 0.00053 | –
m1 = 0.000231 | 0.00413 ± 0.00022 | 0.00479 ± 0.00024 | 0.00548 ± 0.00028 | 0.00602 ± 0.00034 | 0.00694 ± 0.00041 | 0.00736 ± 0.00049 | –
m1 = 0.00024 | 0.00423 ± 0.00021 | 0.00491 ± 0.00023 | 0.0056 ± 0.00028 | 0.00617 ± 0.00031 | 0.00714 ± 0.00042 | 0.0076 ± 0.0005 | –
m1 = 0.00025 | 0.00434 ± 0.00021 | 0.00502 ± 0.00023 | 0.00573 ± 0.00028 | 0.00633 ± 0.00031 | 0.00734 ± 0.0004 | 0.00784 ± 0.00048 | –
m1 = 0.000261 | 0.00445 ± 0.0002 | 0.00513 ± 0.00021 | 0.00587 ± 0.00027 | 0.00647 ± 0.00028 | 0.00755 ± 0.00039 | 0.00808 ± 0.00042 | –
m1 = 0.000273 | 0.00456 ± 0.00019 | 0.00524 ± 0.00022 | 0.00604 ± 0.00027 | 0.00663 ± 0.00029 | 0.00777 ± 0.00037 | 0.00832 ± 0.00039 | –
m1 = 0.000286 | 0.00469 ± 0.0002 | 0.00539 ± 0.00025 | 0.00621 ± 0.00022 | 0.00681 ± 0.00043 | 0.008 ± 0.00021 | 0.00856 ± 0.00039 | –
m1 = 0.0003 | 0.00481 ± 0.00019 | 0.00556 ± 0.00026 | 0.00639 ± 0.00022 | 0.00704 ± 0.00044 | 0.00822 ± 0.0002 | 0.0088 ± 0.00037 | 38.57 ± 0.38
m1 = 0.0004 | – | – | – | – | – | – | 38.4 ± 0.38
